From patent US20070128217A1 (priority 2003, published 2007)

Columns and labels:
[1] = test system: antibodies in sera from SARS patients (sera 1a, 1b, 2, 6, 37, 62, London, SARS-yellow, SARS-green); format: binding, human; parameters: Binding of serum 6 to linear peptides of protein X1 of SARS-CoV Urbani / Binding of serum 37 to linear peptides of protein X1 of SARS-CoV Urbani / Binding of serum 6 to looped/cyclic peptide (PEPSCAN-ELISA) / Binding of serum 37 to looped/cyclic peptide (PEPSCAN-ELISA) / Binding of serum 37 to looped/cyclic peptides of protein X1 of SARS-CoV Urbani / Binding of serum 6 to linear peptides of protein X2 / Binding of serum 37 to linear peptides of protein X2 / Binding of serum 37 to looped/cyclic peptides of protein X2 of SARS-CoV Urbani / Binding of serum 6 to linear peptides of protein M of SARS-CoV Urbani / Binding of serum 37 to linear peptides of protein M of SARS-CoV Urbani / Binding of serum 6 to looped/cyclic peptides of protein M of SARS-CoV Urbani / Binding of serum 37 to looped/cyclic peptides of protein M of SARS-CoV Urbani / Binding of serum 6 to linear peptides of protein X3 of SARS-CoV Urbani / Binding of serum 37 to linear peptides of protein X3 of SARS-CoV Urbani / Binding of serum 37 to looped/cyclic peptides of protein X3 of SARS-CoV Urbani / Binding of serum 6 to linear peptides of protein X4 of SARS-CoV Urbani / Binding of serum 37 to linear peptides of protein X4 of SARS-CoV Urbani / Binding of serum 37 to looped/cyclic peptides of protein X4 of SARS-CoV Urbani / Binding of serum 6 to linear peptides of protein X5 of SARS-CoV Urbani / Binding of serum 37 to linear peptides of protein X5 of SARS-CoV Urbani / Binding of serum 37 to looped/cyclic peptides of protein X5 of SARS-CoV Urbani / Binding of serum 6 to linear peptides of protein N of SARS-CoV Urbani / Binding of serum 37 to linear peptides of protein N of SARS-CoV Urbani / Binding of serum 6 to linear peptide (PEPSCAN-ELISA) / Binding of serum 1a to looped/cyclic peptides of protein N of SARS-CoV Urbani / Binding of serum 1b to looped/cyclic peptides of protein N of SARS-CoV Urbani / Binding of serum 2 to looped/cyclic peptides of protein N of SARS-CoV Urbani / Binding of serum 6 to looped/cyclic peptides of protein N of SARS-CoV Urbani / Binding of serum 37 to looped/cyclic peptides of protein N of SARS-CoV Urbani / Binding of serum 62 to looped/cyclic peptides of protein N of SARS-CoV Urbani / Binding of serum London to looped/cyclic peptides of protein N of SARS-CoV Urbani / Binding of serum SARS-green to looped/cyclic peptides of protein N of SARS-CoV Urbani: unit not given here
[2] = test system: rabbit serum obtained by immunizing a rabbit with the SARS-CoV strain Frankfurt 1; format: binding; parameters: Binding of a rabbit serum to linear peptides / Binding of a rabbit serum to looped peptides / Rabbit serum linear peptides / Rabbit serum looped peptides / Binding of a rabbit serum to linear peptides of protein N of SARS-CoV Urbani (Rabbit serum linear peptides) / Binding of a rabbit serum to looped/cyclic peptides of protein N of SARS-CoV Urbani (Rabbit serum looped peptides): unit not given here
[3] = test system: control sera (pooled serum of ten healthy LUMC hospital workers; commercial negative donor pooled serum from the Dutch bloodbank); format: binding, human; parameters: Binding of Control serum LUMC to linear peptides / Binding of Control serum Blood-bank to linear peptides / Binding of Control serum LUMC to looped peptides / Binding of Control Serum Blood-Bank to Looped peptides / Binding of Control serum LUMC to linear peptides of the protein M of SARS-CoV Urbani / Binding of Control serum Blood-bank to linear peptides of the protein M of SARS-CoV Urbani / Binding of Control serum LUMC to looped peptides of the protein M of SARS-CoV Urbani / Binding of Control Serum Blood-Bank to Looped peptides of the protein M of SARS-CoV Urbani: unit not given here

IMLLQFAYSNRNRFL
Binding of serum 1a to linear peptides of protein M of SARS-CoV Urbani [1]: 0.7 | Binding of serum 1a to looped/cyclic peptides of protein M of SARS-CoV Urbani [1]: 0.6 | Binding of serum 1b to linear peptides of protein M of SARS-CoV Urbani [1]: 0.5 | Binding of serum 1b to looped/cyclic peptides of protein M of SARS-CoV Urbani [1]: 0.4 | Binding of serum 2 to linear peptides of protein M of SARS-CoV Urbani [1]: 0.4 | Binding of serum 2 to looped/cyclic peptides of protein M of SARS-CoV Urbani [1]: 0.6 | Binding of serum 6 to linear peptides of protein M of SARS-CoV Urbani [1]: 0.4 | Binding of serum 6 to looped/cyclic peptides of protein M of SARS-CoV Urbani [1]: 1.0 | Binding of serum 37 to linear peptides of protein M of SARS-CoV Urbani [1]: 0.4 | Binding of serum 37 to looped/cyclic peptides of protein M of SARS-CoV Urbani [1]: 0.6 | Binding of serum 62 to linear peptides of protein M of SARS-CoV Urbani [1]: 0.3 | Binding of serum 62 to looped/cyclic peptides of protein M of SARS-CoV Urbani [1]: 0.5 | Binding of serum London to linear peptides of protein M of SARS-CoV Urbani [1]: 0.3 | Binding of serum London to looped/cyclic peptides of protein M of SARS-CoV Urbani [1]: 0.6 | Binding of serum SARS-green to linear peptides of protein M of SARS-CoV Urbani [1]: 0.4 | Binding of serum SARS-green to looped/cyclic peptides of protein M of SARS-CoV Urbani [1]: 0.3 | Binding of serum SARS-yellow to linear peptides of protein M of SARS-CoV Urbani [1]: 0.2 | Binding of serum SARS-yellow to looped/cyclic peptides of protein M of SARS-CoV Urbani [1]: 0.6 | Rabbit serum linear peptides [2]: 0.2 | Rabbit serum looped peptides [2]: 0.5 | Binding of Control Serum Blood-Bank to Looped peptides of the protein M of SARS-CoV Urbani [3]: 0.5 | Binding of Control serum Blood-bank to linear peptides of the protein M of SARS-CoV Urbani [3]: 0.5 | Binding of Control serum LUMC to linear peptides of the protein M of SARS-CoV Urbani [3]: 0.6 | Binding of Control serum LUMC to looped peptides of the protein M of SARS-CoV Urbani [3]: 0.6

INACRIIMRCWLCWK
Binding of serum 1a to looped/cyclic peptide (PEPSCAN-ELISA) [1]: 0.6 | Binding of serum 1b to looped/cyclic peptide (PEPSCAN-ELISA) [1]: 0.4 | Binding of serum 2 to looped/cyclic peptide (PEPSCAN-ELISA) [1]: 0.6 | Binding of serum 6 to looped/cyclic peptide (PEPSCAN-ELISA) [1]: 0.6 | Binding of serum 37 to looped/cyclic peptide (PEPSCAN-ELISA) [1]: 0.5 | Binding of serum 62 to looped/cyclic peptide (PEPSCAN-ELISA) [1]: 0.6 | Binding of serum London to looped/cyclic peptide (PEPSCAN-ELISA) [1]: 0.4 | Binding of serum SARS-green to looped/cyclic peptide (PEPSCAN-ELISA) [1]: 0.3 | Binding of serum SARS-yellow to looped/cyclic peptide (PEPSCAN-ELISA) [1]: 0.5 | Recognition of the peptide by sera of SARS-CoV infected individuals, and form (linear, looped/cyclic) in which it is recognized [1]: recognized in linear form | Recognition of the peptide by the rabbit serum [2]: recognized | Binding of Control Serum Blood-Bank to Looped peptides [3]: 0.7 | Binding of Control serum Blood-bank to linear peptides [3]: 0.9 | Binding of Control serum LUMC to linear peptides [3]: 0.4 | Binding of Control serum LUMC to looped peptides [3]: 0.6

IQFMMSRRRLLACLC
Binding of serum 1a to linear peptides of protein X2 [1]: 0.7 | Binding of serum 1a to looped/cyclic peptides of protein X2 of SARS-CoV Urbani [1]: 0.4 | Binding of serum 1b to linear peptides of protein X2 [1]: 0.5 | Binding of serum 1b to looped/cyclic peptides of protein X2 of SARS-CoV Urbani [1]: 0.2 | Binding of serum 2 to linear peptides of protein X2 [1]: 0.4 | Binding of serum 2 to looped/cyclic peptides of protein X2 of SARS-CoV Urbani [1]: 0.5 | Binding of serum 6 to linear peptides of protein X2 [1]: 0.6 | Binding of serum 6 to looped/cyclic peptides of protein X2 of SARS-CoV Urbani [1]: 0.3 | Binding of serum 37 to linear peptides of protein X2 [1]: 0.6 | Binding of serum 37 to looped/cyclic peptides of protein X2 of SARS-CoV Urbani [1]: 0.2 | Binding of serum 62 to linear peptides of protein X2 [1]: 0.7 | Binding of serum 62 to looped/cyclic peptides of protein X2 of SARS-CoV Urbani [1]: 0.3 | Binding of serum London to linear peptides of protein X2 [1]: 0.5 | Binding of serum London to looped/cyclic peptides of protein X2 of SARS-CoV Urbani [1]: 0.4 | Binding of serum SARS-green to linear peptides of protein X2 [1]: 0.6 | Binding of serum SARS-green to looped/cyclic peptides of protein X2 of SARS-CoV Urbani [1]: 0.2 | Binding of serum SARS-yellow to linear peptides of protein X2 [1]: 0.8 | Binding of serum SARS-yellow to looped/cyclic peptides of protein X2 of SARS-CoV Urbani [1]: 0.5 | Binding of a rabbit serum to linear peptides [2]: 0.5 | Binding of a rabbit serum to looped peptides [2]: 1.1 | Binding of Control Serum Blood-Bank to Looped peptides [3]: 0.3 | Binding of Control serum Blood-bank to linear peptides [3]: 0.8 | Binding of Control serum LUMC to linear peptides [3]: 0.6 | Binding of Control serum LUMC to looped peptides [3]: 0.4
